The target of assay [1] is T1, doubly truncated human TPH1 (ΔNH102-ΔCOOH402) (Homo sapiens, UniProt P17752).
T1 construct: doubly truncated human TPH1 (ΔNH102-ΔCOOH402); made in house; host or cells: E. coli BL21(DE3)
Put plainly: TPH1 enzyme activity assay (HPLC, 5-OH-Trp). To be noted: for IC50: best-fit IC50 (± SE), nonlinear regression, N.A. = no activity. The format is biochemical.
Procedure: (§1) TPH1 enzymatic activity assays were performed with the selected hits from the DSF screening in the presence and absence of 50 μM of each compound. The final concentration of DMSO was 0.5% (v/v), and control experiments used 0.5% DMSO in the absence of ligand. Assays were performed in a standard reaction mixture containing 40 mM Hepes pH 7.0, 200 mM NaCl, 0.1 mg/mL catalase, 0.5 mg/mL BSA, 10 μM ferrous ammonium sulfate, and 30 μM L-tryptophan (L-Trp). Compounds were incubated with TPH1 (0.02 mg/mL) in the reaction mixture for 10 min on ice.

The next assay relates to HDAC 1. The following applies: cited from earlier work.
For the next assay, the target named is T2, human TH isoform 1 (TH1) (Homo sapiens, UniProt P07101).
T2 construct: Full-length human TH isoform 1 (TH1); His6-ZZ fusion partner (one of the two preparations only) (cleaved yes); made in house; host or cells: E. coli BL21(DE3) pLysS (pET3a) or BL21 CodonPlus (pET-ZZ-1a)
T2 sequence (P07101 1-497 isoform P07101-3): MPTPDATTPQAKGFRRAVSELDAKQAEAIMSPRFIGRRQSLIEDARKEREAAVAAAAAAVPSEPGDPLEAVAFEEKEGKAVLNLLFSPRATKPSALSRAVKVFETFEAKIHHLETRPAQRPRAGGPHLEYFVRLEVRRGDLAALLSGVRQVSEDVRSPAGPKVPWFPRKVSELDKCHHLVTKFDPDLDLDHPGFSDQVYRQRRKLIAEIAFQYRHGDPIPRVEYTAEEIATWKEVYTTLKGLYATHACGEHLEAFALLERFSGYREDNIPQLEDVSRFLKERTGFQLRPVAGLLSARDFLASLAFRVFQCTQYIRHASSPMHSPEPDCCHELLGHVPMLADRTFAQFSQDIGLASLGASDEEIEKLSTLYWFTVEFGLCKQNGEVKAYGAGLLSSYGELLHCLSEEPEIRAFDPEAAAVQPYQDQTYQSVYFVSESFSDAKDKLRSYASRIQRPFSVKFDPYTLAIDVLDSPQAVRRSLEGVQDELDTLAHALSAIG
Put plainly: TH enzyme activity assay (HPLC, L-DOPA). The format is biochemical. The following applies: best-fit IC50 (± SE), nonlinear regression; N.A. = no activity. How it is done:
The activity of purified PAH, TH, TPH1, and TPH2 was measured using high-performance liquid chromatography (HPLC) as previously described.[50],[56],[57]
TH activities were performed in a standard reaction mixture containing 40 mM Hepes (pH 7.0), 0.1 mg/mL catalase, 10 μM ferrous ammonium sulfate, and 50 μM L-Tyr. Compounds were incubated with TH (0.01 mg/mL) in the reaction mixture for 10 min on ice. The enzymatic reaction was initiated by adding 200 μM BH4 and 2 mM DTT (final concentrations) and stopped by precipitation with 2% (v/v) acetic acid in ethanol after 5 min at 37 °C. The product, L-DOPA, was quantified by HPLC utilizing a fluorescence monitor set at 281 and 314 nm for excitation and emission, respectively.
GraphPad Prism (version 10; La Jolla, CA) was used for analyzing the enzyme inhibition data.

Another assay has as its system HDAC 8. To be noted: human recombinant HDAC, cited from earlier work.
The next assay has as its target T3, human PAH (Homo sapiens, UniProt P00439).
T3 construct: Full-length human TH isoform 1 (TH1), human PAH, human TPH2, and doubly truncated human TPH1; made in house; host or cells: E. coli TB1
T3 sequence (P00439 1-452): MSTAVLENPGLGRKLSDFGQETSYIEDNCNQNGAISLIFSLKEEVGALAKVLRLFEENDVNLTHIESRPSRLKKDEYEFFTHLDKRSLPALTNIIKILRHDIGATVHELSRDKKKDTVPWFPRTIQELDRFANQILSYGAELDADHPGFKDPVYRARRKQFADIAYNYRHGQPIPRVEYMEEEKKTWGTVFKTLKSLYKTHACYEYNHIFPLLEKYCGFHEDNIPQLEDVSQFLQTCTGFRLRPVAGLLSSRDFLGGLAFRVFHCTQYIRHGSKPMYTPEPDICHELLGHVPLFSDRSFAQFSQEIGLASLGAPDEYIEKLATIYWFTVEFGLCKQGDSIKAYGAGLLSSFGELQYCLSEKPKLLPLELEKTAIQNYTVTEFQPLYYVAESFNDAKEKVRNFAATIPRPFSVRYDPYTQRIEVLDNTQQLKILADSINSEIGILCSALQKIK
Put plainly: PAH enzyme activity assay (HPLC, L-Tyr). Format: biochemical. To be noted: best-fit IC50 (± SE), nonlinear regression; N.A. = no activity; read-out: IC50 (μM) PAH.

For another assay, the target named is T4, human TPH2 (Homo sapiens, UniProt Q8IWU9).
T4 construct: Full-length human TH isoform 1 (TH1), human PAH, human TPH2, and doubly truncated human TPH1; MBP (cleaved yes); made in house; host or cells: E. coli BL21(DE3)
T4 sequence (Q8IWU9 1-490): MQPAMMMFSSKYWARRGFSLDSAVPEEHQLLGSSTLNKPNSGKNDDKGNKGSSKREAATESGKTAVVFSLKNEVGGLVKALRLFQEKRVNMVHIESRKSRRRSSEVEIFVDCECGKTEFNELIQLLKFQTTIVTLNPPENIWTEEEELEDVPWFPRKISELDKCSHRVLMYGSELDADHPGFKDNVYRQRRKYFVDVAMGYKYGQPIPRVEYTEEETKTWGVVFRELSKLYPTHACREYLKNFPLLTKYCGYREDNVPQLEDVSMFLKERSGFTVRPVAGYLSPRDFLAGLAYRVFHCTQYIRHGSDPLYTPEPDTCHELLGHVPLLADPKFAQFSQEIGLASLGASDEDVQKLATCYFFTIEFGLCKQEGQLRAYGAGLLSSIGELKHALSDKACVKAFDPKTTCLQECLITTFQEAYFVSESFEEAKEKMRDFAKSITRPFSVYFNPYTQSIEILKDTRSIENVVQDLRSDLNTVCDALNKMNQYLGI
Put plainly: TPH2 enzyme activity assay (HPLC). Format: biochemical. The following applies: best-fit IC50 (± SE), nonlinear regression; N.A. = no activity.

In another assay the test system is HDAC 6. The following applies: cited from earlier work.
Another assay concerns the target T5, TPH1 (Homo sapiens, UniProt P17752).
T5 construct: doubly truncated human TPH1 (ΔNH102-ΔCOOH402); made in house; host or cells: E. coli BL21(DE3)
Put plainly: Differential scanning fluorimetry (DSF) thermal stability assay. The format is binding. To be noted: for Tm (°C) ± SD (°C), primary screen: 0.075 mg/mL TPH1, 0.5% DMSO, three independent measurements (a: duplicates); for Kd: estimated from DSF dose-response, 2% DMSO, read-out: apparent KD (μM), dose-response. How it is done: A fluorescence-based thermal stability assay (differential scanning fluorimetry, DSF) was used for testing the effects of HDIs on the thermal stability of TPH1.
For initial high throughput screening (HTS), compounds were prepared at a concentration of 10 mM (in some cases, 5 mM) in 100% DMSO. Initial HTS screening was performed on TPH1 with and without compounds using a LightCycler 480 Real-Time PCR System (Roche Applied Science). TPH1 was diluted to 0.075 mg/mL in 50 mM Tris pH 8.0, 200 mM NaCl, 0.5 mM TCEP, and 5% glycerol with 5x SYPRO Orange. Compounds were added to a final concentration of 50 μM. Controls with 0.5% DMSO were performed on each 384-well microplate. Unfolding curves were recorded from 20 to 95 °C at a scan rate of 2 °C/min and monitored at excitation = 465 nm and emission = 610 nm. Selected hits were validated further by serial dilution from 250 μM to 122 nM, keeping the DMSO concentration constant at 2%.
DSF data were analyzed using HTSDSF Explorer.[55] Melting temperature (Tm) was calculated from the maximum value of the first derivative of the unfolding curve. ΔTm (Tm with compound–averaged Tm in DMSO controls) was plotted for all validated curves and a threshold of 2 °C was set (typically, cutoff at ΔTm = 3-fold the SD of the Tm of the DMSO control).
Preliminary binding constants (KD) were calculated by fitting data to the equation [drawing 1] where ΔH0 is the enthalpy of the unfolding of the protein in the presence of ligand ([L]), and R is the gas constant.

For the next assay, the system named is TH. The following applies: proteome profiling study; cited from earlier work.
[2] abbreviates: human recombinant HDAC, ref 1 (PMID: 26443078).

Structures are written as SMILES. “And” between values parts separate entries of the source, which are not always exact repeats. Identical values can stand only once. Like-named read-outs stand apart in the source and are kept apart here.

T5 sequence (P17752 102-402): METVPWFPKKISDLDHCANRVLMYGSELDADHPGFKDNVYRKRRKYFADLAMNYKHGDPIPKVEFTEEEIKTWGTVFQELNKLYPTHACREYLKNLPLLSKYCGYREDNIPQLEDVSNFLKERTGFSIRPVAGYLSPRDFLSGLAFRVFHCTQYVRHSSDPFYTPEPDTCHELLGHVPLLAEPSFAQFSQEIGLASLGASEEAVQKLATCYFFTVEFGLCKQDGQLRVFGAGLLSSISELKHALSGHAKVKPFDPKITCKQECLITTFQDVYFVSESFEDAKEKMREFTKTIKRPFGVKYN
T1 sequence (P17752 102-402, stated change not applied): as the sequence (P17752 102-402) above
Procedure for human TPH2: as §1

Take `O=C(NO)c1ccc(Cl)c(C(=O)Nc2ccc(Cl)cc2)c1` [EG22, 4-Chloro-3-(4-chlorophenylcarbamoyl)-N-hydroxybenzamide]: the IC50 in assay [1] was 35.8 µM; against human TH isoform 1 (TH1), 14.7 µM; in the assay on HDAC 8 (ref 4 (PMID: 34392190)) it was 0.18 ± 0.05 µM; on human PAH, 0.89 µM and 0.9 µM; against human TPH2 it was 10.7 µM. Further, the “inhibition of TPH1 activity at 50 μM” value in assay [1] (compound 50 μM, 0.5% DMSO) is “more than 50%”. Also, the “HDAC 1 % inhibition @ 1 μM” value with HDAC 1 (@ 1 μM, ref 4 (PMID: 34392190)) is reported as 20 ± 1%. Also, the “HDAC 6 % inhibition @ 1 μM” value with HDAC 6 (@ 1 μM, ref 4 (PMID: 34392190)) is listed as 94 ± 4%. Also, the “Tm (°C) ± SD (°C), primary screen” value at TPH1 (DSF, 50 μM compound) was 59.4 ± 0.3 °C. In addition, the “ΔTm (°C) ± SD (°C), primary screen” value at TPH1 (DSF, 50 μM compound, vs averaged Tm of 0.5% DMSO controls) stood at 3.9 ± 0.2 °C. Further, the Kd on TPH1 was 15.2 µM.
As for `Cc1[nH]c2ccccc2c1CCNCc1ccc(/C=C/C(=O)NO)cc1` [panobinostat, reference compound], the IC50 is […] in [1]; 3.3 µM with TH; […] in the assay with HDAC 1 (setting [2]); 8.67 µM and 8.7 µM against human TH isoform 1 (TH1); […] with HDAC 8 (ref 1 (PMID: 26443078)); 0.57 µM and 0.6 µM at human PAH. For the same molecule, the IC50 was 43.6 µM at human TPH2 and […] in the assay on HDAC 6 (setting [2]). Moreover, the inhibition at 50 µM in assay [1] (compound 50 μM, 0.5% DMSO) was > 50%. On TPH1 (DSF, 50 μM compound), the “Tm (°C) ± SD (°C), primary screen” value came to 56.0 ± 0.0 °C. Further, on TPH1 (DSF, 50 μM compound, vs averaged Tm of 0.5% DMSO controls, read-out: ΔTm (°C) ± SD (°C), primary screen), the thermal shift (ΔTm) at 50 µM was found to be […]. Besides, the Kd at TPH1 was 15.6 µM.

The record behind these values is article PMC11587510, “Aromatic Amino Acid Hydroxylases as Off-Targets of Histone Deacetylase Inhibitors” (ACS Chemical Neuroscience, 2024).
